Experimental data as given in patent US6583274B1, “Crystalline forms of macrolide antibiotic” (Pfizer Inc., priority 1999, dated 2003).

Experiments:
[1] = hygroscopicity measurement (weight vs relative humidity on storage); type: physicochemical; details: for hygroscopicity: about 87% relative humidity, ambient temperature
Protocol: FIG. 3: Weight (Pct) - Relative humidity (Pct).
As used herein, the term “non-hygroscopic” when used to describe a composition of matter means that the composition of matter absorbs moisture at a rate of less than about 0.4% over 24 hours at 90% relative humidity.
A particular advantage conferred by this form is its lack of hygroscopicity.
(§1) From this and other data, it has been determined that crystalline anhydrous CP-472,295 is non-hygroscopic at about 87% relative humidity for about 72 hours at ambient temperature. This unexpected property allows the low-cost, efficient handling and storage of the drug, and the facile incorporation of accurate amounts of the drug into a variety of dosage forms.
as §1, with “Crystalline CP-472,295 monohydrate, like the crystalline anhydrous form described above, is advantageously non-hygroscopic. […] From” for “From”, “crystalline” for “crystalline anhydrous”, “CP-472,295 monohydrate” for “CP-472,295”, “7 days” for “72 hours”
By contrast, the pseudomorph formed when the monohydrate loses water is hygroscopic, and reabsorbs the water of hydration within about 4 hours when stored at about 87% relative humidity at ambient temperature.

[2] = water loss under routine handling conditions; type: physicochemical; details: routine handling conditions (e.g., 25° C. and 70% relative humidity)

Which results are given for CCCNC[C@]1(O)[C@H](C)O[C@@H](O[C@H]2[C@H](C)[C@@H](O[C@@H]3O[C@H](C)C[C@H](N(C)C)[C@H]3O)[C@@](C)(O)C[C@@H](C)CN[C@H](C)[C@@H](O)[C@](C)(O)[C@@H](CC)OC(=O)[C@@H]2C)C[C@@]1(C)OC [pseudomorph]?
hygroscopicity ([1]; pseudomorph formed when the monohydrate loses water): hygroscopic; time to reabsorb the water of hydration ([1]; stored at about 87% relative humidity at ambient temperature): ≤ 4 h

Which hygroscopicity ([1]; about 72 hours) does the source give for CCCNC[C@]1(O)[C@H](C)O[C@@H](O[C@H]2[C@H](C)[C@@H](O[C@@H]3O[C@H](C)C[C@H](N(C)C)[C@H]3O)[C@@](C)(O)C[C@@H](C)CN[C@H](C)[C@@H](O)[C@](C)(O)[C@@H](CC)OC(=O)[C@@H]2C)C[C@@]1(C)OC [crystalline anhydrous CP-472,295] here?
Its hygroscopicity is “non-hygroscopic (absorbs moisture at a rate of less than about 0.4% over 24 hours at 90% relative humidity)”.

For CCCNC[C@]1(O)[C@H](C)O[C@@H](O[C@H]2[C@H](C)[C@@H](O[C@@H]3O[C@H](C)C[C@H](N(C)C)[C@H]3O)[C@@](C)(O)C[C@@H](C)CN[C@H](C)[C@@H](O)[C@](C)(O)[C@@H](CC)OC(=O)[C@@H]2C)C[C@@]1(C)OC [crystalline CP-472,295 monohydrate], which hygroscopicity ([1]; about 7 days) is on record?
The hygroscopicity was “non-hygroscopic (absorbs moisture at a rate of less than about 0.4% over 24 hours at 90% relative humidity)”.

For CCCNC[C@]1(O)[C@H](C)O[C@@H](O[C@H]2[C@H](C)[C@@H](O[C@@H]3O[C@H](C)C[C@H](N(C)C)[C@H]3O)[C@@](C)(O)C[C@@H](C)CN[C@H](C)[C@@H](O)[C@](C)(O)[C@@H](CC)OC(=O)[C@@H]2C)C[C@@]1(C)OC [crystalline CP-472,295 sesquahydrate], which “loss of water (stability of hydrate)” value [2] is on record?
Its value is “readily loses water”.
